Measured values reported in article PMC4913548 (OncoTargets and therapy, 2016).

Target: estrogen receptor α (Homo sapiens, UniProt P03372)
Assay: ERE-Luc/catD-Luc reporter assay in SH-SY5Y cells
Format: cell-based

estrogen receptor α, sequence (P03372 whole entry): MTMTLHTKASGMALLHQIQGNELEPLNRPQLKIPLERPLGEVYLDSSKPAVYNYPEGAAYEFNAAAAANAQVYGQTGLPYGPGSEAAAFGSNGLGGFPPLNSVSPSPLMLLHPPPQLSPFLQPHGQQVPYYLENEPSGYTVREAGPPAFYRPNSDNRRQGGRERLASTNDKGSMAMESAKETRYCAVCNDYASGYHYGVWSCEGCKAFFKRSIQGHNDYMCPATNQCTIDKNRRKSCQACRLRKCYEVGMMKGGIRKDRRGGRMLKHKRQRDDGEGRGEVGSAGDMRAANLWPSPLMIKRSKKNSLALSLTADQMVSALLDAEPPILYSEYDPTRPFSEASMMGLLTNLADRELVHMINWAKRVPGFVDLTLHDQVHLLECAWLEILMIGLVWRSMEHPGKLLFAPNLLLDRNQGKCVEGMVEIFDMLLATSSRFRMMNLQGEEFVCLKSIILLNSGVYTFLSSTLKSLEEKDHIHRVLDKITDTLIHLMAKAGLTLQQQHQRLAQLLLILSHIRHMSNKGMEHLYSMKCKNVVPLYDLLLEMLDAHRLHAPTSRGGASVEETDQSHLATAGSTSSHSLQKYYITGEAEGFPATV

Substance: nonylphenol
- EC50: 580 ± 250 nM
